# Laboratory results taken from ChEMBL document CHEMBL5029175, “Discovery of MK-4688: an Efficient Inhibitor of the HDM2-p53 Protein-Protein Interaction” (J Med Chem, 2021).
# System: not listed separately
# Experiment: Mean residence time in dog
# Type: ADME, Canis lupus familiaris
# Conditions: in vivo
row,Structure (SMILES),MRT [h]
1,C[C@H]1CC[C@H](Cn2c(N3CCC[C@H]3CF)nc3cc(-c4noc(=O)[nH]4)nc(-c4cncc(Cl)c4)c32)CC1,1.5
2,C[C@H]1CC[C@H](Cn2c(N3CCC[C@H]3C(F)(F)F)nc3cc(-c4noc(=O)[nH]4)nc(-c4cncc(Cl)c4)c32)CC1,2.5
3,COCC(C)c1nc2cc(-c3noc(=O)[nH]3)nc(-c3cncc(Cl)c3)c2n1[C@H](C)[C@H]1CC[C@H](C)CC1 (some centres not stated),3.8
4,CCO[C@@H](c1nc2cc(-c3noc(=O)[nH]3)nc(-c3cncc(Cl)c3)c2n1[C@H](C)[C@H]1CC[C@H](C)CC1)C1CC1,3.1
5,CCOC(c1nc2cc(-c3noc(=O)[nH]3)nc(-c3cncc(Cl)c3)c2n1C[C@H]1CC[C@H](C)CC1)C1CC1 (some centres not stated),1.6
6,C[C@@H]1COC[C@@H](C)N1c1nc2cc(-c3noc(=O)[nH]3)nc(-c3cncc(Cl)c3)c2n1C[C@H]1CC[C@H](C)CC1,3.9
7,COCC(C)c1nc2cc(-c3noc(=O)[nH]3)nc(-c3cncc(Cl)c3)c2n1C[C@H]1CC[C@H](C)CC1 (some centres not stated),1.2

# System: not listed separately
# Experiment: Unbound clearance in dog
# Type: ADME, Canis lupus familiaris
# Conditions: in vivo
row,Structure (SMILES),CL free [mL/min/kg]
1,C[C@H]1CC[C@H](Cn2c(N3CCC[C@H]3CF)nc3cc(-c4noc(=O)[nH]4)nc(-c4cncc(Cl)c4)c32)CC1,920
2,C[C@H]1CC[C@H](Cn2c(N3CCC[C@H]3C(F)(F)F)nc3cc(-c4noc(=O)[nH]4)nc(-c4cncc(Cl)c4)c32)CC1,1500
3,COCC(C)c1nc2cc(-c3noc(=O)[nH]3)nc(-c3cncc(Cl)c3)c2n1[C@H](C)[C@H]1CC[C@H](C)CC1 (some centres not stated),59
4,CCO[C@@H](c1nc2cc(-c3noc(=O)[nH]3)nc(-c3cncc(Cl)c3)c2n1[C@H](C)[C@H]1CC[C@H](C)CC1)C1CC1,323
5,CCOC(c1nc2cc(-c3noc(=O)[nH]3)nc(-c3cncc(Cl)c3)c2n1C[C@H]1CC[C@H](C)CC1)C1CC1 (some centres not stated),206
6,C[C@@H]1COC[C@@H](C)N1c1nc2cc(-c3noc(=O)[nH]3)nc(-c3cncc(Cl)c3)c2n1C[C@H]1CC[C@H](C)CC1,131
7,COCC(C)c1nc2cc(-c3noc(=O)[nH]3)nc(-c3cncc(Cl)c3)c2n1C[C@H]1CC[C@H](C)CC1 (some centres not stated),171

# System: not listed separately
# Experiment: Unbound clearance in rat
# Type: ADME
# Conditions: in vivo
row,Structure (SMILES),CL free [mL/min/kg]
1,C[C@H]1CC[C@H](Cn2c(N3CCC[C@H]3CF)nc3cc(-c4noc(=O)[nH]4)nc(-c4cncc(Cl)c4)c32)CC1,3244
2,C[C@H]1CC[C@H](Cn2c(N3CCC[C@H]3C(F)(F)F)nc3cc(-c4noc(=O)[nH]4)nc(-c4cncc(Cl)c4)c32)CC1,11233
3,COCC(C)c1nc2cc(-c3noc(=O)[nH]3)nc(-c3cncc(Cl)c3)c2n1[C@H](C)[C@H]1CC[C@H](C)CC1 (some centres not stated),1150
4,CCO[C@@H](c1nc2cc(-c3noc(=O)[nH]3)nc(-c3cncc(Cl)c3)c2n1[C@H](C)[C@H]1CC[C@H](C)CC1)C1CC1,2060
5,C[C@@H]1COC[C@@H](C)N1c1nc2cc(-c3noc(=O)[nH]3)nc(-c3cncc(Cl)c3)c2n1C[C@H]1CC[C@H](C)CC1,2166

# System: not listed separately
# Experiment: Bioavailability in dog
# Type: ADME, organism-based, Canis lupus familiaris
# Conditions: in vivo
row,Structure (SMILES),bioavailability [%]
1,C[C@H]1CC[C@H](Cn2c(N3CCC[C@H]3CF)nc3cc(-c4noc(=O)[nH]4)nc(-c4cncc(Cl)c4)c32)CC1,37
2,COCC(C)c1nc2cc(-c3noc(=O)[nH]3)nc(-c3cncc(Cl)c3)c2n1[C@H](C)[C@H]1CC[C@H](C)CC1 (some centres not stated),54
3,CCO[C@@H](c1nc2cc(-c3noc(=O)[nH]3)nc(-c3cncc(Cl)c3)c2n1[C@H](C)[C@H]1CC[C@H](C)CC1)C1CC1,93

# Molecular target: Tumour suppressor p53/oncoprotein Mdm2 (Homo sapiens, UniProt Q00987)
# Experiment: Inhibition of HDM2/p53 interaction in human HCT-116 cells expressing p53RE/Bla incubated for 16 hrs by beta-lactamase reporter gene assay
# Type: cell-based
# Conditions: not given
# Sequence of Tumour suppressor p53/oncoprotein Mdm2 (P04637 whole entry): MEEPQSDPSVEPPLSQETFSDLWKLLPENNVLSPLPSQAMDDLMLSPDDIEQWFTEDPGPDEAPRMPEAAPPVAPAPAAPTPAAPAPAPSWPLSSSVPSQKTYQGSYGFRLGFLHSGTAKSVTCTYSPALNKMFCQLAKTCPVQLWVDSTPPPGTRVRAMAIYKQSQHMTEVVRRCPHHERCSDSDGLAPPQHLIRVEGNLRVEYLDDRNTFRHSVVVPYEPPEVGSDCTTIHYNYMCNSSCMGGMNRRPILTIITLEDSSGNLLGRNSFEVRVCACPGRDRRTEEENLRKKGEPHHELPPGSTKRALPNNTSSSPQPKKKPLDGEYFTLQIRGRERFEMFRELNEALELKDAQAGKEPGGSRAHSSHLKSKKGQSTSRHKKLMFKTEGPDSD
# Sequence of Tumour suppressor p53/oncoprotein Mdm2 (Q00987 whole entry): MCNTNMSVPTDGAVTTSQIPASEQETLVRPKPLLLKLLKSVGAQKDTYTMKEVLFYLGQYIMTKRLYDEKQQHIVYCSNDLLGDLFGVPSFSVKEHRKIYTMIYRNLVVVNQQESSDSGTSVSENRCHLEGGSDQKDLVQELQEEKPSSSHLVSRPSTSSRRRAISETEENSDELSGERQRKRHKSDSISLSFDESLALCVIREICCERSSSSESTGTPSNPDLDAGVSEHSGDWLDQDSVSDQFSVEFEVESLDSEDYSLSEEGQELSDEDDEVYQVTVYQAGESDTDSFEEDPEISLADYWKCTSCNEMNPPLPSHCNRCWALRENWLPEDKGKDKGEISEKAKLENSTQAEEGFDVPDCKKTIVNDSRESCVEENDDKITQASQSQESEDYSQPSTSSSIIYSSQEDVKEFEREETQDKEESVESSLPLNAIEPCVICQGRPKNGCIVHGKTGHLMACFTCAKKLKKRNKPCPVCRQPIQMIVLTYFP
row,Structure (SMILES),IC50 [nM]
1,C[C@H]1CC[C@H](Cn2c(N3CCOC[C@H]3c3ccccc3)nc3nc(-c4noc(=O)[nH]4)nc(-c4ccccc4)c32)CC1,632
2,Cc1cncc(-c2nc(-c3noc(=O)[nH]3)nc3nc(N4CCOC[C@H]4c4ccccc4)n(C[C@H]4CC[C@H](C)CC4)c23)c1,3670
3,C[C@H]1CC[C@H](Cn2c(N3CCOC[C@H]3c3ccccc3)nc3nc(-c4noc(=O)[nH]4)nc(-c4cncc(Cl)c4)c32)CC1,401

# System: not listed separately
# Experiment: Bioavailability in rat
# Type: ADME, organism-based
# Conditions: in vivo
row,Structure (SMILES),bioavailability [%]
1,C[C@H]1CC[C@H](Cn2c(N3CCC[C@H]3CF)nc3cc(-c4noc(=O)[nH]4)nc(-c4cncc(Cl)c4)c32)CC1,7
2,C[C@H]1CC[C@H](Cn2c(N3CCC[C@H]3C(F)(F)F)nc3cc(-c4noc(=O)[nH]4)nc(-c4cncc(Cl)c4)c32)CC1,11
3,COCC(C)c1nc2cc(-c3noc(=O)[nH]3)nc(-c3cncc(Cl)c3)c2n1[C@H](C)[C@H]1CC[C@H](C)CC1 (some centres not stated),46
4,CCO[C@@H](c1nc2cc(-c3noc(=O)[nH]3)nc(-c3cncc(Cl)c3)c2n1[C@H](C)[C@H]1CC[C@H](C)CC1)C1CC1,54
5,C[C@@H]1COC[C@@H](C)N1c1nc2cc(-c3noc(=O)[nH]3)nc(-c3cncc(Cl)c3)c2n1C[C@H]1CC[C@H](C)CC1,9

# System: not listed separately
# Experiment: Lipophilicity, logD of the compound at pH 7 by RP-HPLC analysis
# Type: physicochemical
# Conditions: buffer
row,Structure (SMILES),logD
1,C[C@H]1CC[C@H](Cn2c(N3CCOC[C@H]3c3ccccc3)nc3nc(-c4noc(=O)[nH]4)nc(-c4ccccc4)c32)CC1,2.72
2,C[C@H]1CC[C@H](Cn2c(N3CCC[C@H]3CF)nc3cc(-c4noc(=O)[nH]4)nc(-c4cncc(Cl)c4)c32)CC1,2.42
3,C[C@H]1CC[C@H](Cn2c(N3CCC[C@H]3C(F)(F)F)nc3cc(-c4noc(=O)[nH]4)nc(-c4cncc(Cl)c4)c32)CC1,2.85
4,COCC(C)c1nc2cc(-c3noc(=O)[nH]3)nc(-c3cncc(Cl)c3)c2n1[C@H](C)[C@H]1CC[C@H](C)CC1 (some centres not stated),2.59
5,C[C@@H](Nc1nc(C(=O)O)nc2nc(-c3ccc4sccc4c3)n(Cc3ccc(Cl)cc3)c12)C1CC1,2.2
6,C[C@@H](Nc1nc(C(=O)O)nc2nc(N3CCOC[C@@H]3c3ccccc3)n(Cc3ccc(C(F)(F)F)cc3)c12)C1CCC1,2.34
7,CCO[C@@H](c1nc2cc(-c3noc(=O)[nH]3)nc(-c3cncc(Cl)c3)c2n1[C@H](C)[C@H]1CC[C@H](C)CC1)C1CC1,2.75
8,CC(C)c1ccnc(-c2nc3nc(C(=O)O)nc(N[C@H](C)C4CCC4)c3n2Cc2ccc(C(F)(F)F)s2)c1,2.67
9,CCOC(c1nc2cc(-c3noc(=O)[nH]3)nc(-c3cncc(Cl)c3)c2n1C[C@H]1CC[C@H](C)CC1)C1CC1 (some centres not stated),2.34
10,CC(C)c1ccnc(-c2nc3nc(C(=O)O)nc(N[C@H](C)C4CCC4)c3n2Cc2ccc(OC(F)(F)F)c(F)c2)c1,2.84
11,Cc1cncc(-c2nc(-c3noc(=O)[nH]3)nc3nc(N4CCOC[C@H]4c4ccccc4)n(C[C@H]4CC[C@H](C)CC4)c23)c1,2.17
12,C[C@@H]1COC[C@@H](C)N1c1nc2cc(-c3noc(=O)[nH]3)nc(-c3cncc(Cl)c3)c2n1C[C@H]1CC[C@H](C)CC1,2.32
13,C[C@H]1CC[C@H](Cn2c(N3CCOC[C@H]3c3ccccc3)nc3nc(-c4noc(=O)[nH]4)nc(-c4cncc(Cl)c4)c32)CC1,2.55
14,COCC(c1ccccc1)c1nc2cc(-c3noc(=O)[nH]3)nc(-c3cncc(Cl)c3)c2n1C[C@H]1CC[C@H](C)CC1 (mixture of isomers),2.62
15,COCC(C)c1nc2cc(-c3noc(=O)[nH]3)nc(-c3cncc(Cl)c3)c2n1C[C@H]1CC[C@H](C)CC1 (some centres not stated),2.03
16,C[C@@H](Nc1nc(C(=O)O)nc2nc(NC3CCCCC3)n(Cc3ccc(C(F)(F)F)cc3)c12)C1CCC1,2.62

# System: not listed separately
# Experiment: Mean residence time in rat
# Type: ADME
# Conditions: in vivo
row,Structure (SMILES),MRT [h]
1,C[C@H]1CC[C@H](Cn2c(N3CCC[C@H]3CF)nc3cc(-c4noc(=O)[nH]4)nc(-c4cncc(Cl)c4)c32)CC1,0.25
2,C[C@H]1CC[C@H](Cn2c(N3CCC[C@H]3C(F)(F)F)nc3cc(-c4noc(=O)[nH]4)nc(-c4cncc(Cl)c4)c32)CC1,0.35
3,COCC(C)c1nc2cc(-c3noc(=O)[nH]3)nc(-c3cncc(Cl)c3)c2n1[C@H](C)[C@H]1CC[C@H](C)CC1 (some centres not stated),0.4
4,CCO[C@@H](c1nc2cc(-c3noc(=O)[nH]3)nc(-c3cncc(Cl)c3)c2n1[C@H](C)[C@H]1CC[C@H](C)CC1)C1CC1,0.5
5,C[C@@H]1COC[C@@H](C)N1c1nc2cc(-c3noc(=O)[nH]3)nc(-c3cncc(Cl)c3)c2n1C[C@H]1CC[C@H](C)CC1,0.3

# System: HCT-116
# Experiment: cells
# Conditions: Homo sapiens, HCT-116, 72 h
row,Structure (SMILES),IC50 [nM]
1,C[C@H]1CC[C@H](Cn2c(N3CCOC[C@H]3c3ccccc3)nc3nc(-c4noc(=O)[nH]4)nc(-c4ccccc4)c32)CC1,6370
2,C[C@H]1CC[C@H](Cn2c(N3CCC[C@H]3CF)nc3cc(-c4noc(=O)[nH]4)nc(-c4cncc(Cl)c4)c32)CC1,169
3,C[C@H]1CC[C@H](Cn2c(N3CCC[C@H]3C(F)(F)F)nc3cc(-c4noc(=O)[nH]4)nc(-c4cncc(Cl)c4)c32)CC1,99
4,COCC(C)c1nc2cc(-c3noc(=O)[nH]3)nc(-c3cncc(Cl)c3)c2n1[C@H](C)[C@H]1CC[C@H](C)CC1 (some centres not stated),222
5,CCO[C@@H](c1nc2cc(-c3noc(=O)[nH]3)nc(-c3cncc(Cl)c3)c2n1[C@H](C)[C@H]1CC[C@H](C)CC1)C1CC1,31
6,CCOC(c1nc2cc(-c3noc(=O)[nH]3)nc(-c3cncc(Cl)c3)c2n1C[C@H]1CC[C@H](C)CC1)C1CC1 (some centres not stated),466
7,Cc1cncc(-c2nc(-c3noc(=O)[nH]3)nc3nc(N4CCOC[C@H]4c4ccccc4)n(C[C@H]4CC[C@H](C)CC4)c23)c1,7800
8,C[C@@H]1COC[C@@H](C)N1c1nc2cc(-c3noc(=O)[nH]3)nc(-c3cncc(Cl)c3)c2n1C[C@H]1CC[C@H](C)CC1,248
9,C[C@H]1CC[C@H](Cn2c(N3CCOC[C@H]3c3ccccc3)nc3nc(-c4noc(=O)[nH]4)nc(-c4cncc(Cl)c4)c32)CC1,1970
10,COCC(c1ccccc1)c1nc2cc(-c3noc(=O)[nH]3)nc(-c3cncc(Cl)c3)c2n1C[C@H]1CC[C@H](C)CC1 (mixture of isomers),451
11,COCC(C)c1nc2cc(-c3noc(=O)[nH]3)nc(-c3cncc(Cl)c3)c2n1C[C@H]1CC[C@H](C)CC1 (some centres not stated),1110
